Test results: US10392369B2, “N-[(pyrimidinyloxy)propanyl]benzamides” (Boehringer Ingelheim International GmbH, priority 2016, dated 2019)
Like-named read-outs stand apart in the source and are kept apart here.

How the values were obtained:
OX2R = molecular target: T1, OX2R (Homo sapiens, UniProt O43614); settings: cited from earlier work
T1 sequence (O43614 1-444): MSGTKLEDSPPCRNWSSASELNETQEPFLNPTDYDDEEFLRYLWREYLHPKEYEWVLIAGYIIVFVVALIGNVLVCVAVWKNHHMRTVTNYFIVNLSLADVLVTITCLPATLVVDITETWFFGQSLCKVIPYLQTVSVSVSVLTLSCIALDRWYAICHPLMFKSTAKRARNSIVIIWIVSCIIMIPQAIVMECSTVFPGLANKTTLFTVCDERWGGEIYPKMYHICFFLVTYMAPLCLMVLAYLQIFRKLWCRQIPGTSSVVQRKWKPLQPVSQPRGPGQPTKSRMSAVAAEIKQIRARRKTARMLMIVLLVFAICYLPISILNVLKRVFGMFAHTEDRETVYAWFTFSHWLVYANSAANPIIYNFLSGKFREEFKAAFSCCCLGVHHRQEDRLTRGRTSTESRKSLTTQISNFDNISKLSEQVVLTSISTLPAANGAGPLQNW

human Orexin 1 receptor = molecular target: T2, human Orexin 1 receptor (Homo sapiens, UniProt O43613); test: Assay A: OX1R IP1 (in vitro OX1R potency); type: cell-based; settings: for Kb: Table 3, read-out: Assay A OX1R Kb (Orexin A concentration); for OX1R selectivity compared to Example 14 in WO2016/034882 / OX1R selectivity over OX2R (selectivity ratio OX2R Kb/OX1R Kb) compared to Example 91 in WO2016/034882 / OX1R potency compared to Example 91 in WO2016/034882: in words; for OX1R selectivity compared to Example 14 in WO2016/034882: versus Example 14 in WO2016/034882; for OX1R selectivity over OX2R (selectivity ratio OX2R Kb/OX1R Kb) compared to Example 91 in WO2016/034882 / OX1R potency compared to Example 91 in WO2016/034882: versus Example 91 in WO2016/034882
T2 construct: stably expressing the full-length human Orexin 1 receptor; expressed in transfected cells; host or cells: CHO-K1 (CHO-K1/hOx1), co-expressing the aequorin photoprotein
T2 sequence (O43613 1-425): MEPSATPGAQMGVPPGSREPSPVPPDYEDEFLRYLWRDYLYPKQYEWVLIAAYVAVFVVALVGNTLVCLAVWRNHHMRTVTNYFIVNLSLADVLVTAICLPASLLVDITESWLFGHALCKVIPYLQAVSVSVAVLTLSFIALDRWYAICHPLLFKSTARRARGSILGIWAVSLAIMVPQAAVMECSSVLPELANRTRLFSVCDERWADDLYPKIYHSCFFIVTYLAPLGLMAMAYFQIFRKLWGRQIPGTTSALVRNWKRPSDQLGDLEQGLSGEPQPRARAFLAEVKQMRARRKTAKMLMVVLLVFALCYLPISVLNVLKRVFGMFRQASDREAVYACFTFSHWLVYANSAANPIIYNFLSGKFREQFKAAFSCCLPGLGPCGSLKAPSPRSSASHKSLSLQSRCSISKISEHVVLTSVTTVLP
Text: Activation of the orexin receptors expressed in cell lines results in an increase in intracellular IP3 concentration. IP1, a downstream metabolite of IP3, accumulates in cells following receptor activation and is stable in the presence of LiCl. Using Homogeneous Time-Resolved Fluorescence technology with Lumi4-Tb cryptate (commercially available from Cisbio Bioassay.) and a suitable fluorescence plate reader. […] This technique is used to characterize pharmacological modification of the orexin receptors.
A. In Vitro Testing of OX1R Potency: OX1R IP1
IP1 measurements are performed in CHO-K1 cells stably expressing the full-length human Orexin 1 receptor and the aequorin photoprotein. Cells are cultivated in Ham's nutrient mixture F12 medium with 10% fetal calf serum, in a 37° C., 95% humidity and 5% CO2 incubator. The CHO-K1/hOx1 cell mass is expanded to larger cell numbers. The cells are obtained as frozen cells in cryo-vials and stored until use at −150° C. […] In preparation for the assay, 24 hours before the assay, the cells are thawed at 37° C. and immediately diluted with cell culture medium. After centrifugation, the cell pellet is re-suspended in medium and then distributed into the assay plates with a density of 10000 cells/25 μL per well. The plates are incubated for one hour at room temperature to reduce edge effects before they are incubated for 24 hours at 37° C./5% CO2. Compounds are prepared by an 8-point serial dilution in DMSO and a final dilution step into assay buffer (HBSS with 20 mM HEPES, 0.1% BSA and 50 mM LiCl, pH 7.4) to ensure a final DMSO concentration of 1% in the assay.
(§1) On the day of the assay, cells in the plate are washed twice with 60 μL assay buffer (20 μL buffer remained in the wells after washing), followed by adding 5 μL per well of compounds diluted in assay buffer. After 15 minutes of incubation at room temperature 5 μL per well of Orexin A peptide (final concentration: 0.5 nM and/or 50 nM) dissolved in assay buffer is added to the assay plate. The assay plate is incubated for 60 minutes at 37° C. Then 5 μl per well of Anti-IP1-Cryptate Tb solution and 5 μl per well of IP1-d2 dilution are added and the plate is incubated for a further 60 minutes light protected at room temperature.
(§2) 8-point four parametric non-linear curve fitting and determination of IC50 values and Hill slopes is performed using a regular analysis software e.g. AssayExplorer (Accelrys). In order to establish an agonist concentration independent parameter, Kb values are calculated using the following equation: IC50/((2+(A/EC50)^n)^1/n−1) (with A=concentration agonist, EC50=EC50 agonist, n=Hill slope agonist).

human orexin 2 receptor = molecular target: T3, human orexin 2 receptor (Homo sapiens, UniProt O43614); test: Assay B: OX2R IP1 (in vitro OX2R potency); type: cell-based; settings: Table 3; 0.5 nM Orexin A
T3 construct: stably expressing the full-length human orexin 2 receptor; expressed in transfected cells; host or cells: CHO-K1 (CHO-K1/hOx2), co-expressing the aequorin photoprotein
T3 sequence (O43614 1-444): T1 sequence (O43614 1-444)
Text: Activation of the orexin receptors expressed in cell lines results in an increase in intracellular IP3 concentration. IP1, a downstream metabolite of IP3, accumulates in cells following receptor activation and is stable in the presence of LiCl. Using Homogeneous Time-Resolved Fluorescence technology with Lumi4-Tb cryptate (commercially available from Cisbio Bioassay.) and a suitable fluorescence plate reader. […] Chem. Genomics 2009, 3, 22-32. This technique is used to characterize pharmacological modification of the orexin receptors.
B. In Vitro Testing of OX2R Potency: OX2R IP1
IP1 measurements are performed in CHO-K1 cells stably expressing the full-length human orexin 2 receptor and the aequorin photoprotein. Cells are cultivated in Ham's nutrient mixture F12 medium with 10% fetal calf serum, in a 37° C., 95% humidity and 5% CO2 incubator. The CHO-K1/hOx2 cell mass is expanded to larger cell numbers. The cells are obtained as frozen cells in cryo-vials and stored until use at −150° C. The viability of the cells after thawing is >90%. In preparation for the assay, 24 hours before the assay, the cells are thawed at 37° C. and immediately diluted with cell culture medium. After centrifugation, the cell pellet is resuspended in medium and then distributed into the assay plates with a density of 5000 cells/25 μL per well. The plates are incubated for one hour at room temperature to reduce edge effects before they are incubated for 24 hours at 37° C./5% CO2. Compounds are prepared by a 8-point serial dilution in DMSO and a final dilution step into assay buffer (HBSS with 20 mM HEPES, 0.1% BSA and 50 mM LiCl, pH 7.4) to ensure a final DMSO concentration of 1% in the assay.
as §1, with “concentration: 0.5 nM) dissolved” for “concentration: 0.5 nM and/or 50 nM) dissolved”, “are added to all well of the plate and the” for “are added and the”, “room temperature. The emission at 615 nm and 665 nm (Excitation wavelength: 320 nm) are measured using an EnVision reader (PerkinElmer). The ratio between the emission at 665 nm and 615 is calculated by the reader.” for “room temperature.”
as §2, with “of […]” for “of IC50”, “slope agonist) (see P. Leff, I. G. Dougall, Trends Pharmacol. Sci. 1993, 14(4), 110-112).” for “slope agonist).”

Row | SMILES | OX2R pIC50 (OX2R; Table 3 of WO2016/034882) | IC50 (OX2R; corresponds to pIC50 of Table 3 of WO2016/034882) [nM] | Kb (human Orexin 1 receptor; 0.5 nM Orexin A) [nM] | Kb (human Orexin 1 receptor; 50 nM Orexin A) [nM] | Kb (human orexin 2 receptor) [nM] | OX1R selectivity compared to Example 14 in WO2016/034882 (human Orexin 1 receptor) | OX2R Kb/OX1R Kb (human Orexin 1 receptor) | OX1R selectivity over OX2R (selectivity ratio OX2R Kb/OX1R Kb) compared to Example 91 in WO2016/034882 (human Orexin 1 receptor) | OX1R potency compared to Example 91 in WO2016/034882 (human Orexin 1 receptor)
1 | CC[C@@H](CNc1ncc(C(F)(F)F)cn1)N(C)C(=O)c1c(F)cccc1-n1nccn1 [Ex 91 in WO2016/ 034882] | < 5.1 | > 7950 |  |  |  |  |  |  | 
2 | CCN(C(=O)c1ccc(F)cc1-c1ncccn1)[C@@H](C)COc1ncc(C(F)(F)F)cn1 [Example 25] |  |  | 0.81 | 1.4 | 272 |  |  |  | 
3 | CCN(C(=O)c1ccccc1-c1ncccn1)[C@@H](C)COc1ncc(C(F)(F)F)cn1 [Example 28] |  |  | 0.62 | 0.74 | 176 | increase in OX1R selectivity |  |  | 
4 | CCN(C(=O)c1cccc(F)c1-n1nccn1)[C@@H](C)COc1ncc(Br)cn1 [Example 29] |  |  | 2 |  | 350 |  | 178 | increase in OX1R selectivity | 
5 | CCN(C(=O)c1ccc(OC)cc1-n1nccn1)[C@@H](C)COc1ncc(C(F)(F)F)cn1 [Example 30] |  |  | 1.8 |  | 579 |  | 322 | increase | increase
6 | CCN(C(=O)c1ccccc1-c1cnc(C)o1)[C@@H](C)COc1ncc(C(F)(F)F)cn1 [Example 31] |  |  | 6 |  | 746 |  | 124 | increase in OX1R selectivity | 
7 | CCN(C(=O)c1cccc(F)c1-c1ncccn1)[C@@H](C)COc1ncc(C(F)(F)F)cn1 [Example 32] |  |  | 0.61 | 0.46 | 188 | increase in OX1R selectivity |  |  | 
8 | CCN(C(=O)c1c(-n2nccn2)ccc(C)c1F)[C@@H](C)COc1ncc(C(F)(F)F)cn1 [Example 34] |  |  | 1.8 |  | 431 |  | 239 | increase in OX1R selectivity | increase in OX1R potency
9 | CCN(C(=O)c1ccc(F)c(F)c1-n1nccn1)[C@@H](C)COc1ncc(C(F)(F)F)cn1 [Example 35] |  |  | 2.5 |  | 455 |  | 182 | more selective | 
10 | CCN(C(=O)c1ccccc1-c1ncco1)[C@@H](C)COc1ncc(C(F)(F)F)cn1 [Example 36] |  |  | 3.2 |  | 511 |  | 160 | increase in OX1R selectivity | 
